Counter-ions that a name gives are not always drawn.
Experiments:
[1] = test system: SMN protein; assay: SMN protein assay (HTRF) in cultured SMA patient fibroblast cells; assay type: cell-based; conditions: SMA Type 1 human fibroblasts GM03813, 48 hours; for EC1.5x SMN protein (EC1.5x concentration for SMN protein expression): 7-point concentration curve, concentration giving 1.5 times SMN protein vs vehicle; for max. fold increase (maximum fold increase of SMN protein): 7-point concentration data, fold vs vehicle control
Outline: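 SMA patient fibroblasts seeded at 5,000 cells/well, treated 48 h at 37 °C in triplicate per concentration (7-point series). Lysed in RIPA with protease inhibitors; SMN read by HTRF (anti-SMN d2/kryptate, overnight RT), 665/620 nm ratio. ΔF vs blank, expressed as fold over vehicle; EC1.5x and maximum fold increase derived.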

[2] = test system: full length SMN2 minigene mRNA (FL SMN2mini) in HEK293H cells stably transfected with the SMN2-A minigene construct; assay: SMN2 minigene mRNA splicing RT-qPCR assay in cultured cells; assay type: cell-based; conditions: Homo sapiens, HEK293-H, 24 hours, 7-point concentration curve, concentration giving 1.5-fold FL SMN2mini mRNA vs vehicle, read-out: EC1.5x minigene (EC1.5x concentration for production of full length SMN2 minigene mRNA)
Outline: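 Stably transfected HEK293H cells, 10,000/well in DMEM/10% FBS with hygromycin, attached 6 h, then received compound for 24 h at 37° C in duplicate at 7 concentrations. Multiplex RT-qPCR with GAPDH used primers that detect only the minigene. An efficiency-corrected ΔΔCt, GAPDH- and vehicle-normalized, gave EC1.5x concentrations.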

Row | Structure (SMILES) | EC1.5x SMN protein (EC1.5x concentration for SMN protein expression) [1] [µM] | max. fold increase (maximum fold increase of SMN protein) [1] | EC (1.5-fold) [2] [µM]
1 | Cc1cn2cc(NC(=O)c3cnc(N4CCNCC4)cc3OCC(F)(F)F)cc(F)c2n1 [Example 71, N-(8-fluoro-2-methylimidazo[1,2-a]pyridin-6-yl)-6-(piperazin-1-yl)-4-(2,2,2-trifluoro-ethoxy)nicotinamide] | 0.4077 | 1.4815 | 0.077
2 | CCOc1nc(N2CCNCC2)ccc1C(=O)Nc1cc(F)c2nc(C)cn2c1 [Example 72, 2-ethoxy-N-(8-fluoro-2-methylimidazo[1,2-a]pyridin-6-yl)-6-(piperazin-1-yl)-nicotinamide] | 0.1324 | 1.7095 | 0.015
3 | Cc1cn2cc(NC(=O)c3ccc(N4CCNCC4)nc3OCC(F)(F)F)cc(F)c2n1 [Example 73, N-(8-fluoro-2-methylimidazo[1,2-a]pyridin-6-yl)-6-(piperazin-1-yl)-2-(2,2,2-trifluoro-ethoxy)nicotinamide] | 0.7589 | 1.5775 | 0.062
4 | COc1nc(N2CCNC(C)(C)C2)ccc1C(=O)Nc1cc(F)c2nc(C)cn2c1 [Example 75, 6-(3,3-dimethyl-piperazin-1-yl)-N-(8-fluoro-2-methyl-imidazo[1,2-a]-pyridin-6-yl)-2-methoxynicotinamide] | 0.3061 | 1.7035 | 0.0654
5 | Cc1cn2cc(NC(=O)c3ccc(C4=CCNCC4)nc3)ccc2n1.Cl [Example 77, N-(2-methylimidazo[1,2-a]pyridin-6-yl)-6-(1,2,3,6-tetrahydropyridin-4-yl)nicotinamide hydrochloride] | 0.2279 | 1.6649 | 0.0641
6 | Cc1cn2cc(NC(=O)c3ccc(C4CCN(C)CC4)nc3)ccc2n1 [Example 78, N-(2-methylimidazo[1,2-a]pyridin-6-yl)-6-(1-methylpiperidin-4-yl)nicotinamide] | 1.013 | 1.7897 | 0.622
7 | Cc1cn2cc(NC(=O)c3ccc(C4CCNCC4)nc3)cc(F)c2n1 [Example 79, N-(8-fluoro-2-methylimidazo[1,2-a]pyridin-6-yl)-6-(piperidin-4-yl)nicotinamide dihydrochloride] | 0.2559 | 1.6574 | 0.0559
8 | Cc1cn2cc(NC(=O)c3ccc(C4CCN(C)CC4)nc3)cc(F)c2n1 [Example 80, N-(8-fluoro-2-methylimidazo[1,2-a]pyridin-6-yl)-6-(1-methylpiperidin-4-yl)nicotinamide] | 0.52 | 1.5928 | 0.115
9 | Cc1cn2cc(NC(=O)c3ccc(C4CCNCC4)cc3F)cc(F)c2n1.Cl [Example 81, 2-fluoro-N-(8-fluoro-2-methylimidazo[1,2-a]pyridin-6-yl)-4-(piperidin-4-yl)benzamide hydrochloride] | 0.2723 | 1.6719 | 0.0374
